In US4740233A, “Substituted 1,2,4-triazolo[1,5-a]-pyrimidine-2-sulfonamides and compositions and methods of controlling undesired vegetation and suppressing the nitrification of ammonium nitrogen in soil” (The Dow Chemical Company, priority 1986, dated 1988):

Tested on: nitrification of ammonium nitrogen
Test: Suppression of nitrification of ammonium nitrogen in soil
Settings: 27° C.
Description: A sufficient volume of water was added to 20 g of the soil in a wide-mouth, screw-cap, 4-ounce, glass bottle, such that the moisture content of the mixture was made equal to the 1/3 bar tension value for that soil. The mixture was thoroughly mixed before sealing. […] Acetone slows the rate of soil nitrification and its concentration must be carefully controlled. Single samples of each test chemical were incubated for two weeks at 27° C.
The experiment comprised the following types of samples:
The soil samples were analyzed as follows: Sufficient ammonium sulfate extracting solution was added to the sample, such that the total volume of added water was 50 ml (included water added during sample preparation). The capped mixture was shaken 10 minutes to solubilize nitrate and the soil particulates were allowed to settle. The nitrate concentration in the water phase was determined with a nitrate-specific ion electrode such as Orion Model 93-07.
The non-nitrate nitrogen remaining (% NH4 -N remaining) in the soil after two weeks (performance value) was calculated as follows: [formula]

SMILES	% NH4-N Remaining After 2 Weeks Incubation (0.06 ppm) [%]	% NH4-N Remaining After 2 Weeks Incubation (0.25 ppm) [%]	% NH4-N Remaining After 2 Weeks Incubation (1 ppm) [%]	% NH4-N Remaining After 2 Weeks Incubation (4 ppm) [%]	% NH4-N Remaining After 2 Weeks Incubation (0.6 ppm) [%]	% NH4-N Remaining After 2 Weeks Incubation (1.25 ppm) [%]	% NH4-N Remaining After 2 Weeks Incubation (2.5 ppm) [%]	% NH4-N Remaining After 2 Weeks Incubation (5 ppm) [%]	% NH4-N Remaining After 2 Weeks Incubation (10 ppm) [%]	% NH4-N Remaining After 2 Weeks Incubation (0.01 ppm) [%]	% NH4-N Remaining After 2 Weeks Incubation (0.1 ppm) [%]
Cc1cc(C)n2nc(S(=O)(=O)Nc3c(C)cccc3C(=O)OCCN(C)C)nc2n1 [Compound 73]	26	47	41	62	–	–	–	–	–	–	–
Cc1cc(C)n2nc(S(=O)(=O)Nc3c(C)cccc3C(=O)Oc3ccccc3)nc2n1 [Compound 75]	25	61	67	86	–	–	–	–	–	–	–
Cc1cc(C)n2nc(S(=O)(=O)Nc3ccccc3SC(C)(C)C)nc2n1 [Compound 80]	0	0	20	43	–	–	–	–	–	–	–
Cc1cc(C)n2nc(S(=O)(=O)Nc3c(Cl)cccc3COCc3ccccc3)nc2n1 [Compound 92]	0	4	0	25	–	–	–	–	–	–	–
Cc1cc(C)n2nc(S(=O)(=O)Nc3ccccc3S(=O)(=O)c3ccccc3)nc2n1 [Compound 96]	–	–	–	–	0	0	7	42	100	–	–
Cc1cc(C)n2nc(S(=O)(=O)Nc3ccccc3Oc3ccc(C(F)(F)F)cc3Cl)nc2n1 [Compound 97]	67	0	3	19	–	–	–	–	–	–	–
Cc1cc(C)n2nc(S(=O)(=O)Nc3ccccc3Oc3ncc(C(F)(F)F)cc3Cl)nc2n1 [Compound 99]	0	–	0	57	–	–	–	–	–	–	–
COC(=O)c1ccc(C(=O)OC)c(NS(=O)(=O)c2nc3nc(C)cc(C)n3n2)c1 [Compound 102]	–	–	–	–	0	0	0	24	44	–	–
Cc1cc(C)n2nc(S(=O)(=O)Nc3c(C)cccc3C(=O)O)nc2n1 [Compound 103]	0	15	43	53	–	–	–	–	–	–	–
COC(=O)c1ccccc1NS(=O)(=O)c1nc2nc(C)c3c(n2n1)CCC3 [Compound 109]	–	–	41	–	–	–	–	–	92	0	0
Cc1nc2nc(S(=O)(=O)Nc3ccccc3C(=O)OC(C)C)nn2c2c1CCC2 [Compound 110]	–	–	13	–	–	–	–	–	59	0	0
CSc1ccccc1NS(=O)(=O)c1nc2ncc(Cl)cn2n1 [Compound 115]	37	41	64	86	–	–	–	–	–	–	–
O=S(=O)(Nc1c(F)cccc1Cl)c1nc2ncc(Cl)cn2n1 [Compound 116]	27	50	57	81	–	–	–	–	–	–	–
O=S(=O)(Nc1ccccc1)c1nc2ncc(Cl)cn2n1 [Compound 120]	71	46	63	87	–	–	–	–	–	–	–
CSc1ccccc1NS(=O)(=O)c1nc2ncccn2n1 [Compound 135]	–	–	12	–	–	–	–	–	100	0	0
CSc1ccccc1NS(=O)(=O)c1nc2nc(C)ccn2n1 [Compound 142]	–	–	62	–	–	–	–	–	98	0	5
COC(=O)c1cccc(C)c1NS(=O)(=O)c1nc2nc(C)ccn2n1 [Compound 146]	19	48	60	79	–	–	–	–	–	–	–
Cc1ccn2nc(S(=O)(=O)Nc3c(Cl)ccc(C)c3Cl)nc2n1 [Compound 147]	41	55	72	87	–	–	–	–	–	–	–

SMILES	% NH4-N Remaining After 2 Weeks Incubation (0.06 ppm) [%]	% NH4-N Remaining After 2 Weeks Incubation (0.25 ppm) [%]	% NH4-N Remaining After 2 Weeks Incubation (1 ppm) [%]	% NH4-N Remaining After 2 Weeks Incubation (4 ppm) [%]	% NH4-N Remaining After 2 Weeks Incubation (0.6 ppm) [%]	% NH4-N Remaining After 2 Weeks Incubation (1.25 ppm) [%]	% NH4-N Remaining After 2 Weeks Incubation (2.5 ppm) [%]	% NH4-N Remaining After 2 Weeks Incubation (5 ppm) [%]	% NH4-N Remaining After 2 Weeks Incubation (10 ppm) [%]	% NH4-N Remaining After 2 Weeks Incubation (0.01 ppm) [%]	% NH4-N Remaining After 2 Weeks Incubation (0.1 ppm) [%]
Cc1ccn2nc(S(=O)(=O)Nc3c(C)cccc3Br)nc2n1 [Compound 148]	–	–	–	–	69	75	81	89	93	–	–
Cc1ccn2nc(S(=O)(=O)Nc3ccccc3[S+]([O-])C(F)(F)C(F)F)nc2n1 (centres unmarked) [Compound 149]	–	–	–	–	0	0	5	26	62	–	–
CSc1cccc(C)c1NS(=O)(=O)c1nc2nc(C)ccn2n1 [Compound 150]	83	74	91	93	–	–	–	–	–	–	–
COC(=O)c1cccc(F)c1NS(=O)(=O)c1nc2nc(C)ccn2n1 [Compound 159]	49	56	80	94	–	–	–	–	–	–	–
Cc1nc2nc(S(=O)(=O)Nc3c(Cl)cccc3Cl)nn2c(C)c1Cl [Compound 200]	0	31	50	60	–	–	–	–	–	–	–
CCOc1cnc2nc(S(=O)(=O)Nc3c(C)cccc3Cl)nn2c1 [Compound 202]	0	0	0	32	–	–	–	–	–	–	–
Cc1c(C(=O)O)cnc2nc(S(=O)(=O)Nc3c(Cl)cccc3Cl)nn12 [Compound 224]	1	0	27	63	–	–	–	–	–	–	–
O=[N+]([O-])c1ccc(-c2cnc3nc(S(=O)(=O)Nc4c(Cl)cccc4Cl)nn3c2)cc1 [Compound 226]	2	17	42	69	–	–	–	–	–	–	–
COC(=O)c1cc2ccccc2cc1NS(=O)(=O)c1nc2nc(C)cc(C)n2n1 [Compound 245]	0	0	0	30	–	–	–	–	–	–	–
Cc1cc(C)n2nc(S(=O)(=O)Nc3ncc(Cl)cc3Cl)nc2n1 [Compound 251]	–	–	0	–	–	–	–	–	29	0	0
Cc1cc(C)n2nc(S(=O)(=O)Nc3ncccc3Cl)nc2n1 [Compound 252]	–	–	38	–	–	–	–	–	82	0	0
Cc1cc(C)n2nc(S(=O)(=O)Nc3ccncc3)nc2n1 [Compound 253]	–	–	0	–	–	–	–	–	17	0	5
Cc1cc(C)n2nc(S(=O)(=O)Nc3cccnc3Cl)nc2n1 [Compound 255]	–	–	37	–	–	–	–	–	72	0	0
Cc1cc(C)n2nc(S(=O)(=O)Nc3nccs3)nc2n1 [Compound 256]	–	–	10	–	–	–	–	–	48	20	13
COC(=O)c1sccc1NS(=O)(=O)c1nc2nc(C)cc(C)n2n1 [Compound 257]	–	–	0	–	–	–	–	–	58	0	0
Cc1cc(C)n2nc(S(=O)(=O)Nc3nc4c(Cl)cccc4s3)nc2n1 [Compound 258]	–	–	23	–	–	–	–	–	78	0	0
CCOC(=O)CN(c1c(Cl)cccc1Cl)S(=O)(=O)c1nc2nc(C)cc(C)n2n1 [Compound 264]	0	1	26	37	–	–	–	–	–	–	–
